Laboratory results published in patent publication US8507411B2, “Neoglycorandomization and digitoxin analogs” (priority 2004, dated 2013).
Read-outs that look alike come from different tables or passages of the source.

What was measured:
Hep3B = experiment: High-throughput calcein AM cytotoxicity assay, Hep3B; format: cell-based, human; conditions: Hep 3B cells
From the text: (§1) Standard errors are depicted with error bars.

NCI-H460 = experiment: High-throughput calcein AM cytotoxicity assay, NCI-H460; format: cell-based, human; conditions: NCI-H460 cells
From the text: as §1

SF-268 = experiment: cells; format: cell-based, human; conditions: SF-268 cells
From the text: (§2) In the assay, live cells were distinguished by the presence of a ubiquitous intracellular enzymatic activity which converts the non-fluorescent cell-permeable molecule calcein AM to the intensely fluorescent molecule calcein, which is retained within live cells. The IC50 value for each library member represents at least six replicates of dose-response experiments conducted over five concentrations using two-fold dilutions. […] Standard errors are depicted with error bars. Numerical values and corresponding error values can be found in Table 4. Du145: […]; MCF7: human breast carcinoma; HCT-116: human colon carcinoma, Hep3B: human liver carcinoma; SF-268: human CNS glioblastoma; SK-OV-3: human ovary adenocarcinoma; NCI-H460: human lung carcinoma; A549: human lung adenocarcinoma; NCI/ADR-RES: human breast carcinoma; NmuMG: mouse mammary normal epithelial.
(§3) Cell Culture: All cell lines except NmuMG were maintained in RPMI 1640 medium from InVitrogen (Cat No. 11875-085) supplemented with 10% w/v fetal bovine serum (FBS) from ICN (Cat No. 2916154) and penicillin-streptomycin (PS) (100 U/mL and 100 μg/mL) from InVitrogen (Cat No. 15140-122). NmuMG cells were maintained in DMEM medium from InVitrogen (Cat No. 11965-084) supplemented with 10% w/v fetal bovine serum (FBS) from ICN (Cat No. 2916154), 10 μg/ml insulin (InVitrogen Cat No 12585-014), and penicillin-streptomycin (PS) (100 U/mL and 100 μg/mL) from InVitrogen (Cat No. 15140-122). Cells were harvested by trypsinization using 0.25% w/v trypsin and 0.1% w/v EDTA from InVitrogen (Cat No. 15-050-057) and then counted in a hemocytometer in duplicate with better than 10% agreement in field counts. Cells were plated at a cell density of 10,000-15,000 cells/well of each Corning Costar 96-well black tissue culture treated microtiter plate (Fisher Cat No. 07-200-627). Cells were grown for 1 h at 37° C., with 5% CO2 in a humidified incubator to allow cell attachment to occur before compound addition.
(§4) Library Member Handling and Preparation for Cytotoxicity Assays: Library members were stored at −20° C. under dessicating conditions before the assay. Library member stocks (100×) were prepared in Corning Costar polypropylene 96-well V-bottom polypropylene microtiter plates (Fisher Cat No. 07-200-695). Five serial 1:2 dilutions were made with anhydrous DMSO at 100× the final concentration used in the assay.
(§5) Library Member Addition: The library member-containing plates were diluted 1:10 with complete cell culture media. The 10× stocks (10 μL) were added to the attached cells using a Biomek FX liquid handler (Beckman-Coulter). Library member stocks (10 μL) were added to 90 μL of cells in each plate to insure full mixing of stocks with culture media using a Beckman FX liquid handler with 96-well head.
(§6) Determination of Cytotoxicity: Cells were incubated with the library members for 72 h before fluorescence reading. Test plates were removed from the incubator and washed 1× in sterile PBS to remove serum containing calcium esterases. Calcein AM reagent (30 μL, […]) was added and the cells were incubated for 30 min at 37° C. Plates were read for emission using a fluorescein filter (excitation 485 nm, emission 535 nm).
(§7) IC50 Calculation: For each library member, at least six dose response experiments were conducted. […] To calculate IC50, percent inhibitions were plotted as a function of log [concentration] and then fit to a four-parameter logistic model that allowed for a variable Hill slope using XLfit 4.1.
(§8) Cytotoxicity Assays. All cell lines except NmuMG were maintained in RPMI 1640 medium supplemented with 10% w/v fetal bovine serum (FBS) and penicillin-streptomycin (PS) (100 U/mL and 100 μg/mL).

SK-OV-3 = experiment: cells; format: cell-based, human; conditions: SK-OV-3 cells
From the text: as §2, §3, §4, §5, §6, §7, §8

NCI/ADR-RES = experiment: cells; format: cell-based, human; conditions: NCI/ADR-RES cells
From the text: as §2, §3, §4, §5, §6, §7, §8

HCT-116 = experiment: High-throughput calcein AM cytotoxicity assay, HCT-116; format: cell-based, human; conditions: HCT-116 cells
From the text: as §1

NmuMG = experiment: cells; format: cell-based, mouse
From the text: as §2, §3, §4, §5, §6, §7, §8

A549 = experiment: High-throughput calcein AM cytotoxicity assay, A549; format: cell-based, human; conditions: A549 cells
From the text: as §1

Du145 = experiment: High-throughput calcein AM cytotoxicity assay, Du145; format: cell-based, human; conditions: Du145 cells
From the text: as §1

MCF7 = experiment: High-throughput calcein AM cytotoxicity assay, MCF7; format: cell-based, human; conditions: MCF7 cells
From the text: as §1

[1] = NmuMG mouse mammary normal epithelial control line, read-out: IC50, NmuMG

Molecule | IC50 (Hep3B; read-out: IC50, Hep 3B) [µM] | IC50 (NCI-H460; read-out: IC50, NCI-H460) [µM] | IC50 (SF-268; read-out: IC50, SF-268) [µM] | IC50 (SK-OV-3; read-out: IC50, SK-OV-3) [µM] | IC50 (NCI/ADR-RES; read-out: IC50, NCI/ADR-RES) [µM] | IC50 (HCT-116; read-out: IC50, HCT-116) [µM] | IC50 (NmuMG; [1]) [µM] | IC50 (A549; read-out: IC50, A549) [µM] | IC50 (Du145; read-out: IC50, Du145) [µM] | IC50 (MCF7; read-out: IC50, MCF7) [µM] | IC50 (Hep3B; read-out: IC50) [µM] | IC50 (NCI-H460; read-out: IC50) [µM] | IC50 (SF-268; read-out: IC50) [µM] | IC50 (SK-OV-3; read-out: IC50) [µM] | IC50 (NCI/ADR-RES; read-out: IC50) [µM] | IC50 (HCT-116; read-out: IC50) [µM] | IC50 (NmuMG; NmuMG cells (mouse mammary normal epithelial control line), read-out: IC50) [µM] | IC50 (A549; read-out: IC50) [µM] | IC50 (Du145; read-out: IC50) [µM] | IC50 (MCF7; read-out: IC50) [µM]
CON(C1CCC2(C)C(CCC3C2CCC2(C)C(C4=CC(=O)OC4)CCC32O)C1)C1OC(C)C(O)C(O)C1O [11β, 6-deoxy-D-glucoside] | 4.4 | 1 | 2.5 | 4 | 0.95 | 2.3 | > 25 | 1.2 | 6 | 1.9 |  |  |  |  |  |  |  |  |  | 
CON(C1CCC2(C)C(CCC3C2CCC2(C)C(C4=CC(=O)OC4)CCC32O)C1)C1OCC(O)C(O)C1O [5α, L-riboside] | > 25 | > 25 | > 25 | > 25 | > 25 | > 25 | > 25 | > 25 | > 25 | > 25 |  |  |  |  |  |  |  |  |  | 
CON(C1CCC2(C)C(CCC3C2CCC2(C)C(C4=CC(=O)OC4)CCC32O)C1)C1OC(CO)C(O)CC1O [10α, 3-deoxy-D-glucoside] | > 25 | > 25 | > 25 | > 25 | > 25 | > 25 | > 25 | > 25 | > 25 | > 25 |  |  |  |  |  |  |  |  |  | 
CON([C@H]1CC[C@@]2(C)[C@H](CC[C@@H]3[C@@H]2CC[C@]2(C)[C@@H](C4=CC(=O)OC4)CC[C@]32O)C1)[C@H]1O[C@@H](CO)[C@H](O)[C@@H](O)[C@H]1O [26β, L-mannoside] | 2 | 1.6 | 2.1 | 3.1 | 4.8 | 4.2 | 1.3 | 1.7 | 2 | 3 |  |  |  |  |  |  |  |  |  | 
6-keto-D-galactoside [31β] | 3.1 | 2.4 | 8 | 2.9 | 1 | 3.1 | > 25 | 2.3 | 1.5 | 9 |  |  |  |  |  |  |  |  |  | 
CON([C@H]1CC[C@@]2(C)[C@H](CC[C@@H]3[C@@H]2CC[C@]2(C)[C@@H](C4=CC(=O)OC4)CC[C@]32O)C1)[C@H]1OC[C@H](O)[C@@H](O)[C@H]1O [14β, L-lyxoside] | 0.6 | 5 | 1.1 | 4.2 | 0.73 | 8 | 0.9 | 0.7 | 2.4 | 4.5 |  |  |  |  |  |  |  |  |  | 
CON(C1CCC2(C)C(CCC3C2CCC2(C)C(C4=CC(=O)OC4)CCC32O)C1)C1OC(CO)C(O)C(O)C1O [21α, L-galactoside] | > 25 | > 25 | > 25 | > 25 | > 25 | > 25 | > 25 | > 25 | > 25 | > 25 |  |  |  |  |  |  |  |  |  | 
CON([C@H]1CC[C@@]2(C)[C@H](CC[C@@H]3[C@@H]2CC[C@]2(C)[C@@H](C4=CC(=O)OC4)CC[C@]32O)C1)[C@H]1O[C@@H](CO)[C@@H](O)[C@H](O)[C@H]1O [28β, L-idoside] | 1 | 1.3 | 2.1 | 2.4 | 0.61 | 3.2 | 1.8 | 1.14 | 1.9 | 2.6 |  |  |  |  |  |  |  |  |  | 
CON(C1CCC2(C)C(CCC3C2CCC2(C)C(C4=CC(=O)OC4)CCC32O)C1)C1OC(CO)C(O)C(O)C1O [42α, L-glucoside] |  |  |  |  |  |  |  |  |  |  | > 25 | > 25 | > 25 | > 25 | > 25 | > 25 | > 25 | > 25 | > 25 | > 25
CON(C1CCC2(C)C(CCC3C2CCC2(C)C(C4=CC(=O)OC4)CCC32O)C1)C1OC(C)C(O)C(O)C1O [11α, 6-deoxy-D-glucoside] | > 25 | > 25 | > 25 | > 25 | > 25 | > 25 | > 25 | > 25 | > 25 | > 25 |  |  |  |  |  |  |  |  |  | 
CON([C@H]1CC[C@@]2(C)[C@H](CC[C@@H]3[C@@H]2CC[C@]2(C)[C@@H](C4=CC(=O)OC4)CC[C@]32O)C1)[C@H]1C[C@@H](O)[C@@H](O)[C@@H](CO)O1 [9β, 2-deoxy-D-galactoside] | 3.6 | 2 | 8 | 4 | 0.9 | 10 | > 25 | 1.3 | 7 | 5.1 |  |  |  |  |  |  |  |  |  | 
